# Patent US20230373939A1 (VERTEX PHARMACEUTICALS INCORPORATED, priority 2020, published 2023)
# pEC50: −log10 of the molar value. Like-named read-outs stand apart in the source and are kept apart here.
# Target: T1, F508del in NIH 3T3 cells (Homo sapiens, UniProt P13569, DEL508-508)
# T1 construct: expressed in transfected cells
# Test: 3T3 assay: membrane potential optical assay for F508del correction
# Format: cell-based
# Conditions: for pEC50: read-out: 3T3 EC50
# Source text: 1. Membrane Potential Optical Methods for Assaying F508del Modulation Properties of Compounds
# The assay utilizes fluorescent voltage sensing dyes to measure changes in membrane potential using a fluorescent plate reader (e.g., FLTPR III, Molecular Devices, Inc.) as a readout for increase in functional F508del in NIH 3T3 cells. The driving force for the response is the creation of a chloride ion gradient in conjunction with channel activation by a single liquid addition step after the cells have previously been treated with compounds and subsequently loaded with a voltage sensing dye.
# 2. Identification of Corrector Compounds
# To identify correctors of F508del, a single-addition HTS assay format was developed. This HTS assay utilizes fluorescent voltage sensing dyes to measure changes in membrane potential on the FLIPR III as a measurement for increase in gating (conductance) of F508del in F508del NUT 3T3 cells. The F508del NUT 3T3 cell cultures were incubated with the corrector compounds at a range of concentrations for 18-24 hours at 37° C., and subsequently loaded with a redistribution dye. The driving force for the response is a Cl^− ion gradient in conjunction with channel activation with forskolin in a single liquid addition step using a fluorescent plate reader such as FLIPR III.
# Bath Solution #1: (in mM) NaCl 160, KCl 4.5, CaCl2 2, MgCl2 1, HEPES 10, pH 7.4 with NaOH.
# Chloride-free bath solution: Chloride salts in Bath Solution #1 (above) are substituted with gluconate salts.
# NIH3T3 mouse fibroblasts stably expressing F508del were used for optical measurements of membrane potential. The cells were maintained at 37° C. in 5% CO2 and 90% humidity in Dulbecco's modified Eagle's medium supplemented with 2 mM glutamine, 10% fetal bovine serum, 1×NEAA, b-ME, 1×pen/strep, and 25 mM HEPES in 175 cm^2 culture flasks. For all optical assays, the cells were seeded at ˜20,000/well in 384-well Matrigel-coated plates. For the correction assays, the cells were cultured at 37° C. with and without compounds for 16-24 hours.
# [1] = NIH3T3, read-out: 3T3 Max Activity (%)
# [2] = NIH3T3, NIH 3T3 cells, F508del, read-out: 3T3 Max Activity (%)
# T1 sequence (P13569 with tags, fused parts or gaps DEL508-508): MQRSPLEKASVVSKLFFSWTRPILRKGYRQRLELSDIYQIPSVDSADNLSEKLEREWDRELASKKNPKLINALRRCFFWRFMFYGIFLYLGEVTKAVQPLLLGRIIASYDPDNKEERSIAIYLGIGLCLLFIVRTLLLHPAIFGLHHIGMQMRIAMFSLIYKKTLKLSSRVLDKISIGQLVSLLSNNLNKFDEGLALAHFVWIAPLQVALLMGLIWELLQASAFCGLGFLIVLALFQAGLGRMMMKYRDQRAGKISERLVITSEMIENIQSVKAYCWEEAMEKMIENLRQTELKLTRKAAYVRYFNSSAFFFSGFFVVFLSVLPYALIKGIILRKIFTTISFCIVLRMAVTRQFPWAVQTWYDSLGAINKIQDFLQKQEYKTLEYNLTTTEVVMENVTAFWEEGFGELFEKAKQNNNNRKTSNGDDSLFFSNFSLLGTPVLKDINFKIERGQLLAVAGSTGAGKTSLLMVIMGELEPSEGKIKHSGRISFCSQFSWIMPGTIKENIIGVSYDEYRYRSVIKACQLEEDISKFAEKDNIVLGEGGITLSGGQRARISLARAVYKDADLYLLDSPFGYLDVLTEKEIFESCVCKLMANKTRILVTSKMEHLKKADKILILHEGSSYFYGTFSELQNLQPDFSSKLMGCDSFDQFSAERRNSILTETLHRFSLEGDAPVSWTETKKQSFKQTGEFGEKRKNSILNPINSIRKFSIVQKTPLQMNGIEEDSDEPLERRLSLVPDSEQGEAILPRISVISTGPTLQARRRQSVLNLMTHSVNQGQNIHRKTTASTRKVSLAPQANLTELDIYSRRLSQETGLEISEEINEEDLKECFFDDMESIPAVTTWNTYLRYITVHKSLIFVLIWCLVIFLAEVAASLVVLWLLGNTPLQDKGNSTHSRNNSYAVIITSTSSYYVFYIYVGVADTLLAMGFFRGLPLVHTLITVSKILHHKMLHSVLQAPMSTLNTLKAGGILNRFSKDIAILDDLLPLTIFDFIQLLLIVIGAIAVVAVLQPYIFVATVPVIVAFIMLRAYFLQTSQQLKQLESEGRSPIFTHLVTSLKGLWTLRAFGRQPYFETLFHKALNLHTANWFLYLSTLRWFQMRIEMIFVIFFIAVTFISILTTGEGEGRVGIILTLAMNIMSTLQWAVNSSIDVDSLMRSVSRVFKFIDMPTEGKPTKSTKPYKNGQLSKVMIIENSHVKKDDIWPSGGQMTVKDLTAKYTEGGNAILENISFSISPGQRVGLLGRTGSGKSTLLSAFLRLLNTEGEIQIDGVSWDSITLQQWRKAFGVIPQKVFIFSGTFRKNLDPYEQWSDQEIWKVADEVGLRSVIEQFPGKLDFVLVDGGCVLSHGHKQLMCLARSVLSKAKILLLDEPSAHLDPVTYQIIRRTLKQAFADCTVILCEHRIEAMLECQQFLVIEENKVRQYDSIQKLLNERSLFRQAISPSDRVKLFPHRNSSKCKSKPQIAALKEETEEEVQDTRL
SMILES,Emax [1] [%],"pEC50 (NIH 3T3 cells, F508del)",Emax [2] [%]
"O=S(=O)(Nc1onc(-c2ccc(Cl)cc2)c1-c1ccc(Cl)cc1)c1ccccc1 [Compound 1, N-[3,4-bis(4-chlorophenyl)isoxazol-5-yl]benzenesulfonamide]",30 to 60,5.52 to 6.00,
"CCCc1oc(NS(=O)(=O)c2ccccc2)nc1-c1ccccc1 [Compound 2, N-(4-phenyl-5-propyl-oxazol-2-yl)benzenesulfonamide]",30 to 60,4.52 to 5.52,
"Cc1ccc(-c2nc(NS(=O)(=O)c3ccccc3)oc2-c2ccc(C)cc2)cc1 [Compound 3, N-[4,5-bis(p-tolyl)oxazol-2-yl]benzenesulfonamide]",> 60,5.52 to 6.00,
"COc1ccccc1Cc1cnc(NS(=O)(=O)c2ccccc2)o1 [Compound 4, N-[5-[(2-methoxyphenyl)methyl]oxazol-2-yl]benzenesulfonamide]",,,< 30
"CCCc1sc(NS(=O)(=O)c2ccccc2)nc1-c1ccc(C)cc1 [Compound 5, N-[5-propyl-4-(p-tolyl)thiazol-2-yl]benzenesulfonamide]",> 60,> 6.00,
"CCCc1sc(NS(=O)(=O)c2ccccc2)nc1-c1ccc(C)cc1C [Compound 6, N-[4-(2,4-dimethylphenyl)-5-propyl-thiazol-2-yl]benzenesulfonamide]",> 60,> 6.00,
"O=S(=O)(Nc1nc(-c2ccccc2)c(-c2ccccc2)s1)c1ccccc1 [Compound 7, N-(4,5-diphenylthiazol-2-yl)benzenesulfonamide]",> 60,5.52 to 6.00,
"Cc1ccc(C)c(-c2nc(NS(=O)(=O)c3ccccc3)sc2C)c1 [Compound 8, N-[4-(2,5-dimethylphenyl)-5-methyl-thiazol-2-yl]benzenesulfonamide]",> 60,> 6.00,
"Nc1cccc(S(=O)(=O)Nc2nc(-c3ccccc3)c(Cc3ccccc3)s2)c1 [Compound 9, 3-amino-N-(5-benzyl-4-phenyl-thiazol-2-yl)benzenesulfonamide]",,5.52 to 6.00,30 to 60
"Cc1ccc(-c2nc(NS(=O)(=O)c3ccccc3)sc2-c2ccc(C)cc2)cc1 [Compound 10, N-[4,5-bis(p-tolyl)thiazol-2-yl]benzenesulfonamide]",30 to 60,> 6.00,
"O=S(=O)(Nc1nc(-c2ccccc2)c(Oc2ccccc2)s1)c1ccccc1 [Compound 11, N-(5-phenoxy-4-phenyl-thiazol-2-yl)benzenesulfonamide]",,,< 30
"O=S(=O)(Nc1nc(C2CC2)cs1)c1ccccc1 [Compound 12, N-(4-cyclopropylthiazol-2-yl)benzenesulfonamide]",,,< 30
"COC(=O)c1sc(NS(=O)(=O)c2ccccc2)nc1-c1ccc(C)cc1 [Compound 13, methyl 2-(benzenesulfonamido)-4-(p-tolyl)thiazole-5-carboxylate]",,4.52 to 5.52,> 60
"O=C(NCc1ccccc1)c1sc(NS(=O)(=O)c2ccccc2)nc1-c1ccccc1 [Compound 14, 2-(benzenesulfonamido)-N-benzyl-4-phenyl-thiazole-5-carboxamide]",,4.52 to 5.52,30 to 60
"CC(C)(C)CCNC(=O)c1sc(NS(=O)(=O)c2ccccc2)nc1-c1ccccc1 [Compound 15, 2-(benzenesulfonamido)-N-(3,3-dimethylbutyl)-4-phenyl-thiazole-5-carboxamide]",,4.52 to 5.52,30 to 60
"O=S(=O)(Nc1nc(-c2ccc(Cl)cc2)c(S(=O)(=O)c2ccccc2)s1)c1ccccc1 [Compound 16, N-[5-(benzenesulfonyl)-4-(4-chlorophenyl)thiazol-2-yl]benzenesulfonamide]",,5.52 to 6.00,30 to 60

SMILES,Emax [1] [%],"pEC50 (NIH 3T3 cells, F508del)",Emax [2] [%]
"CC(C)c1sc(NS(=O)(=O)c2ccccc2)nc1-c1ccccc1 [Compound 17, N-(5-isopropyl-4-phenyl-thiazol-2-yl)benzenesulfonamide]",,4.52 to 5.52,> 60
"CCCc1sc(NS(=O)(=O)c2ccccc2)nc1-c1cc(C)ccc1C [Compound 18, N-[4-(2,5-dimethylphenyl)-5-propyl-thiazol-2-yl]benzenesulfonamide]",,> 6.00,> 60
"CCCc1sc(NS(=O)(=O)c2ccccc2)nc1-c1ccc(OCC)cc1 [Compound 19, N-[4-(4-ethoxyphenyl)-5-propyl-thiazol-2-yl]benzenesulfonamide]",,5.52 to 6.00,30 to 60
"CCCc1sc(NS(=O)(=O)c2ccccc2)nc1-c1ccc(OC)cc1 [Compound 20, N-[4-(4-methoxyphenyl)-5-propyl-thiazol-2-yl]benzenesulfonamide]",,5.52 to 6.00,> 60
"CCc1sc(NS(=O)(=O)c2ccccc2)nc1-c1ccccc1 [Compound 21, N-(5-ethyl-4-phenyl-thiazol-2-yl)benzenesulfonamide]",,4.52 to 5.52,> 60
"Cc1sc(NS(=O)(=O)c2ccccc2)nc1-c1ccc2c(c1)OCCO2 [Compound 22, N-[4-(2,3-dihydro-1,4-benzodioxin-6-yl)-5-methyl-thiazol-2-yl]benzenesulfonamide]",,4.52 to 5.52,30 to 60
"Cc1sc(NS(=O)(=O)c2ccccc2)nc1-c1ccccc1 [Compound 23, N-(5-methyl-4-phenyl-thiazol-2-yl)benzenesulfonamide]",,4.52 to 5.52,> 60
"CCOC(=O)c1sc(NS(=O)(=O)c2ccccc2)nc1-c1ccccc1 [Compound 24, ethyl 2-(benzenesulfonamido)-4-phenyl-thiazole-5-carboxylate]",,4.52 to 5.52,> 60
"COc1ccccc1C1(c2cnc(NS(=O)(=O)c3ccccc3)s2)CC1 [Compound 25, N-[5-[1-(2-methoxyphenyl)cyclopropyl]thiazol-2-yl]benzenesulfonamide]",> 60,4.52 to 5.52,
"Cc1nc(NS(=O)(=O)c2ccccc2)sc1-c1ccccc1 [Compound 26, N-(4-methyl-5-phenyl-thiazol-2-yl)benzenesulfonamide]",> 60,5.52 to 6.00,
"COc1ccc(Cl)cc1Nc1nc(-c2sc(NS(=O)(=O)c3ccccc3)nc2C)cs1 [Compound 27, N-[5-[2-(5-chloro-2-methoxy-anilino)thiazol-4-yl]-4-methyl-thiazol-2-yl]benzenesulfonamide]",30 to 60,5.52 to 6.00,
"Nc1cccc(S(=O)(=O)Nc2nc(-c3ccccc3)c(Cc3cccc(C(=O)O)c3)s2)c1 [Compound 28, 3-[[2-[(3-aminophenyl)sulfonylamino]-4-phenyl-thiazol-5-yl]methyl]benzoic acid]",,,< 30
"COc1ccccc1Nc1nc(-c2sc(NS(=O)(=O)c3ccccc3)nc2C)cs1 [Compound 29, N-[5-[2-(2-methoxyanilino)thiazol-4-yl]-4-methyl-thiazol-2-yl]benzenesulfonamide]",,4.52 to 5.52,30 to 60
"Cc1nc(NS(=O)(=O)c2ccccc2)sc1-c1csc(Nc2ccccn2)n1 [Compound 30, N-[4-methyl-5-[2-(2-pyridylamino)thiazol-4-yl]thiazol-2-yl]benzenesulfonamide]",,5.52 to 6.00,30 to 60
"O=S(=O)(Nc1ncc(Cc2cnccn2)s1)c1ccccc1 [Compound 31, N-[5-(pyrazin-2-ylmethyl)thiazol-2-yl]benzenesulfonamide]",,,< 30
"O=S(=O)(Nc1ncc(Cc2ccccc2)s1)c1ccccc1 [Compound 32, N-[5-benzyl-thiazol-2-yl]benzenesulfonamide]",,,30 to 60
